SMILES strings stand for the structures.

These results are taken from US11384071B2, “Inhibitors of mechanotransduction to treat pain and modulate touch perception” (Max-Delbrück-Centrum für Molekulare Medizin in der …, priority 2016, dated 2022).

In assay [1] the test system is mechanically gated currents in nociceptors. In words: Pillar array analysis of mechanically gated currents in DRG nociceptors. To be noted: for amplitude of mechanically gated currents in nociceptors: stimulus magnitudes between 100 and 500 nm. The class given is cell-based, mouse. Here is the method: (§1) HEK-293 cells (passage numbers 4-20) were cultured in DMEM plus 10% fetal calf serum (FCS). Neuro2A (N2A) cells were cultured in DMEM/Opti-MEM media plus 10% FCS.—Sensory DRG neurons were isolated from 4 week old Mus musculus (C57Bl/6). Approximately 20 ganglia were collected from each mouse and individual cells were isolated by treating ganglia with […] collagenase IV for 30 min, followed by 1 ml of 0.05% trypsin, in PBS, for 5-20 min at 37° C. Enzyme-treated ganglia, in DMEM/F-12 media containing 10% Horse Serum (HS), were disrupted by gently passaging through a 20 G needle; cells were then collected by centrifugation (1000 rpm, 3 min), washed and finally re-suspended in DMEM/F-12, 10% HS media (at no point were neurotrophins added to the culture). Sensory neurons were then seeded on EHS-laminin coated substrate and cultured overnight. Experiments involving isolated sensory neurons were conducted within 24-36 hours of isolation of the cells.
(§2) Whole-cell, patch-clamp recordings were conducted as previously described 5-7, using patch pipettes with a tip resistance of 3-6 MΩ, filled with a solution of: 110 mM KCl, 10 mM NaCl, 1 mM MgCl2, 1 mM EGTA and 10 mM HEPES, adjusted to pH 7.3 with KOH. (For experiments on DRG neurons 10 mM QX-314 was added to the pipette to block voltage-gated sodium channels 8 Extracellular solutions contained 140 mM NaCl, 4 mM KCl, 2 mM CaCl2, 1 mM MgCl2, 4 mM glucose, 10 mM HEPES, adjusted to pH 7.4 with NaOH. A Zeiss 200 inverted microscope and an EPC-10 amplifier in combination with Patchmaster software was used, data was analyzed using Fitmaster software (HEKA Electronik GmbH, Germany). Pipette and membrane capacitance were compensated using the auto function of Patchmaster, series resistance was compensated by at least 60% to minimize voltage errors. Mechanical stimuli were applied using a polished glass probe driven by the MM3A micromanipulator (Kleindiek Nanotechnik, Germany). […]
(§3) Briefly, elastomeric pillar arrays of defined dimensions were cast in PDMS with an elasticity of 2 MPa. Cells cultured on these arrays were monitored using whole-cell patch-clamp whilst a glass probe was used to apply repeated deflections (of differing magnitudes) to an individual pilus directly beneath the cell. Images were obtained of the pilus before and after deflection and images were analyzed off-line to determine the exact deflection for each data point. […] Images were analyzed off-line using Igor software (WaveMetrics, USA). […] A power analysis was used to determine that moderate to strong effects between samples could be detected with a sample size >4. […] For quantitative analysis of mechanosensitivity we measured responses in the most sensitive sub-population of mechanoreceptors, previously defined as Typell mechanoreceptors (Poole et al., 2014).

In assay [2] the test system is mechanically gated currents in mechanoreceptors. Briefly: Pillar array analysis of mechanically gated currents in DRG mechanoreceptors. The class given is cell-based, mouse. To be noted: for sensitivity of mechanically gated currents in mechanoreceptors: acutely cultured mouse sensory neurons; for pillar deflections at which mechanically-gated currents are significantly inhibited: mechanoreceptors, FIG. 2e. The method, then: as §1, §2, §3

The target in assay [3] is T1, STOML3 (Mus musculus, UniProt Q6PE84).
T1 construct: expressed in transfected cells; host or cells: HEK-293
T1 sequence (Q6PE84 1-287): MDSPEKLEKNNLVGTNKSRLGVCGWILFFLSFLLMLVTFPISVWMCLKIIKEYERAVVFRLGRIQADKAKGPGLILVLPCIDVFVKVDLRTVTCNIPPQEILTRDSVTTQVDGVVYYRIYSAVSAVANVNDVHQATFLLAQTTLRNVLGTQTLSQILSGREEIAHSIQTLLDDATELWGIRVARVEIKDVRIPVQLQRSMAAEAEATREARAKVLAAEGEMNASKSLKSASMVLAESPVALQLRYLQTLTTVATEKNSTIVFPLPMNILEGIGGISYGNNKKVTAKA
In words: BiFC assay of STOML3 self-association in HEK-293 cells. The class given is cell-based. To be noted: for STOML3 self-association based on the slope of YFP signal development: primary screen of about 35000 small molecules, each at 10 M (so in the source). The method, then: HEK-293 cells were cultured in T-150 flasks to approximately 70% confluence; cells were co-transfected with plasmids encoding STOML3-VC and STOML3-VN using Fugene-HD, as per manufacturer's instructions. The transfection reaction was allowed to proceed for 8 h before cells were recovered from the dishes, resuspended in DMEM media containing 25 mM HEPES and lacking phenol red. Cells were plated in PLL-coated 384 well plates using an automated dispenser (EL406 Microplate Washer Dispenser). Plates already contained compound from the ChemBioNet compound library1. The final assay volume was 40 μl cells with 10 μM of compound. […] Development of the YFP fluorescence signal was monitored overnight (15 h), with readings taken every 3 h (ex: 515±8 nm, em: 535±8 nm). In between readings cells were maintained at 37° C., 5% CO2, and 95% humidity. The overnight monitoring of signal development was performed on a Freedom Evo workstation equipped with a robotic arm for plate transport and a Safirell plate reader for fluorescence measurement (Tecan Group Ltd, Männedorf, Switzerland), and an integrated STX44-ICSA automated plate incubator (Liconic AG, Mauren, Liechtenstein) for plate storage in between measurements. Experiments were repeated with 20 plates each day until the entire compound library had been screened and data was normalized to in-plate controls.
Compounds of interest were selected from the slope of YFP-signal vs time. Each well was compared to the average slope of in-plate positive controls (normalized percent activity), and compared to the mean and standard deviation of all samples on a plate (without the controls), giving a Z score as a measure of statistical significance. Initially, compounds were re-screened in triplicate to confirm whether or not the noted differences were repeatable; compounds with confirmed activity were selected for further analysis.
In mammals STOML3 belongs to a family of five structurally conserved membrane proteins, including stomatin, STOML1, STOML2, and podocin^10,12-16, all of which self-associate via their stomatin-domain (FIG. 8a)^10. Self-association of stomatin-domain proteins can be monitored in HEK293 cells using Bimolecular Fluorescence Complementation (BiFC) whereby N- and C-terminal halves of the YFP molecule are tagged to the prey and bait protein STOML3^2,17 (FIG. 1a). Irreversible association of the YFP fragments produces fluorescence that increases linearly over time (FIG. 1b).

On to `CCOC(=O)c1c(-c2ccccc2)oc2ccc(Oc3c([N+](=O)[O-])ncn3C)cc12` [OB-1, Ethyl 5-((1-methyl-4-nitro-1H-imidazol-5-yl)oxy)-2-phenylbenzofuran-3-carboxylate], for which the “amplitude of mechanically gated currents in nociceptors” value in assay [1] is listed as “significant reduction”. In addition, in assay [2], the “sensitivity of mechanically gated currents in mechanoreceptors” value is “substantially reduced” and the “pillar deflections at which mechanically-gated currents are significantly inhibited” value is on record as “up to 250 nm”. In addition, the “normalized slope of BiFC signal development” value in assay [3] (2 μm and 20 μm, wild type STOML3 as bait and prey) is on record as “significantly reduced”. The BiFC signal result in assay [3] (lower OB-1 concentration, 2 M (so in the source)) is “inhibited”. The “STOML3 self-association based on the slope of YFP signal development” value in assay [3] was “most effective inhibitory compounds”.

As to `Cc1ccnc(NC(=O)CSc2nnc3c4ccccc4n(Cc4ccccc4)c3n2)c1` [OB-2], in assay [1] (nociceptors), the “activation time constant for current activation τ1” value is on record as “significantly slowed” and the “latency for mechanically gated currents” value is on record as “significantly slowed”. Moreover, the “amplitude of mechanically gated currents in nociceptors” value in assay [1] is “significant reduction”. In addition, in assay [2], the “sensitivity of mechanically gated currents in mechanoreceptors” value is recorded as “substantially reduced” and the “pillar deflections at which mechanically-gated currents are significantly inhibited” value is on record as “less than 50 nm”. Besides, the “STOML3 self-association based on the slope of YFP signal development” value in assay [3] is “most effective inhibitory compounds”.
